Experimental data reported in patent US10308643B2, “Heterocyclic compound” (Takeda Pharmaceutical Company Limited, priority 2015, dated 2019).

Assays:
Assay type in all cases: biochemical
HDAC9 enzyme = target: T1, HDAC9 enzyme (Homo sapiens, UniProt Q9UKV0); assay: HDAC9 Enzyme Inhibitory Assay (HDAC-Glo class IIa); details: 1 μM test compound, wells without enzyme = 100% inhibition; for inhibition at 1 µM: read-out: HDAC9 inhibitory rate (%) (1 μM)
T1 construct: transducing full length HDAC9 gene into Sf-9 insect cells; made in house; host or cells: Sf-9 insect cells
T1 sequence (Q9UKV0 whole entry, species assumed): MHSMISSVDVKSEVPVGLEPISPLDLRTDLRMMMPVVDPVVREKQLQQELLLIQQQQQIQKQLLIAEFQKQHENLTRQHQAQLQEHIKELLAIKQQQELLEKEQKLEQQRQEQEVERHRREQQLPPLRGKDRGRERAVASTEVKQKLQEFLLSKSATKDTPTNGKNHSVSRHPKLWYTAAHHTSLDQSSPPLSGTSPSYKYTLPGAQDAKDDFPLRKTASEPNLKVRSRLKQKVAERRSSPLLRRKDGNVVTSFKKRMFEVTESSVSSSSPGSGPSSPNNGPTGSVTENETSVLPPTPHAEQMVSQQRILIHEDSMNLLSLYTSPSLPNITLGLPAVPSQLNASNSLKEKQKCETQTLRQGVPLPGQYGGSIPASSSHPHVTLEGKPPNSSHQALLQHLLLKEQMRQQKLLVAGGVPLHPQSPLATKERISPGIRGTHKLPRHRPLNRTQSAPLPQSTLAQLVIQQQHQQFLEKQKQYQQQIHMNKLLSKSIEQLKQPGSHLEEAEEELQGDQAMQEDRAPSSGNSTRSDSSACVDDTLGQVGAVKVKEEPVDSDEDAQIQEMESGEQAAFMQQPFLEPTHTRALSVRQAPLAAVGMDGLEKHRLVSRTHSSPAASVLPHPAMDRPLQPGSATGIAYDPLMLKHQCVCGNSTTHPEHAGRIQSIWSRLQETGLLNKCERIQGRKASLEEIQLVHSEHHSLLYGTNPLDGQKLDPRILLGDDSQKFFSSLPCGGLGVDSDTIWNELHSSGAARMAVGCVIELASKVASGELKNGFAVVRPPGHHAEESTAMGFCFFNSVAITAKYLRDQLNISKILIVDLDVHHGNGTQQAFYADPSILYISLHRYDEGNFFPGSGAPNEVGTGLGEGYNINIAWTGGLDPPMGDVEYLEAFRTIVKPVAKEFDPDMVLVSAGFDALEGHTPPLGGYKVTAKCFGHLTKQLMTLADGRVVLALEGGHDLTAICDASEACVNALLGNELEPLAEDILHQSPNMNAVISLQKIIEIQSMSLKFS
Outline: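 Luminescent HDAC-Glo class IIa readout after a 20 min room-temperature reaction; relative inhibition referenced to enzyme-free wells as 100%. Test compound first preincubated 60 min with Sf-9-expressed, Ni-NTA-purified full-length HDAC9 in pH 7.5 Tris buffer containing 135 mM NaCl, 0.6 mM glutathione and 0.01% Tween-20.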

HDAC1 enzyme = target: T2, HDAC1 enzyme (Homo sapiens, UniProt Q13547); assay: HDAC1/6 Enzyme Inhibitory Assay (HDAC-Glo I/II Assay kit), HDAC1; details: 1 μM test compound, wells without enzyme = 100% inhibition; for inhibition at 1 µM: read-out: HDAC1 inhibitory rate (%) (1 μM)
T2 construct: transducing full length HDAC1 and HDAC6 genes into Sf-9 insect cells; GST; purchased SignalChem; host or cells: Sf-9 insect cells
T2 sequence (Q13547 whole entry): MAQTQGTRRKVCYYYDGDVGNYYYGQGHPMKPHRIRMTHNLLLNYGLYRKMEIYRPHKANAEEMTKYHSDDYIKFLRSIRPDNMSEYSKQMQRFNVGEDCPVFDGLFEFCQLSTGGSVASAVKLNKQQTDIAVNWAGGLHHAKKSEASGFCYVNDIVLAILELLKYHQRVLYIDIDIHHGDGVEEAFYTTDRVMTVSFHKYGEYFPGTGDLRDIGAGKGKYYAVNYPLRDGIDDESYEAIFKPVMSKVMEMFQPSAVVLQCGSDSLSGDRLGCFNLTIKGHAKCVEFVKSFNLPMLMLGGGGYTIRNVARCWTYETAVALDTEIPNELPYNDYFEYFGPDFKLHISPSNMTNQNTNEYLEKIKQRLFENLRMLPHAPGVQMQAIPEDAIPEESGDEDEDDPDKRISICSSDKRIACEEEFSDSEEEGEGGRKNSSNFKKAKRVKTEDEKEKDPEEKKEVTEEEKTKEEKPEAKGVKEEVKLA
Outline: (§1)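 Luminescent HDAC-Glo I/II read-out was taken 20 min after adding substrate-developer, at room temperature. Before this, compound and enzyme were held together for 60 min in 24 mM Tris-HCl pH 7.5 with 0.6 mM glutathione and 0.01% Tween-20. The enzyme was full-length HDAC1 or HDAC6 from Sf-9 cells, GST-purified. Wells without enzyme defined 100% inhibition.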

HDAC6 enzyme = target: T3, HDAC6 enzyme (Homo sapiens, UniProt Q9UBN7); assay: HDAC1/6 Enzyme Inhibitory Assay (HDAC-Glo I/II Assay kit), HDAC6; details: 1 μM test compound, wells without enzyme = 100% inhibition; for inhibition at 1 µM: read-out: HDAC6 inhibitory rate (%) (1 μM)
T3 construct: transducing full length HDAC1 and HDAC6 genes into Sf-9 insect cells; GST; purchased SignalChem; host or cells: Sf-9 insect cells
T3 sequence (Q9UBN7 1-1215): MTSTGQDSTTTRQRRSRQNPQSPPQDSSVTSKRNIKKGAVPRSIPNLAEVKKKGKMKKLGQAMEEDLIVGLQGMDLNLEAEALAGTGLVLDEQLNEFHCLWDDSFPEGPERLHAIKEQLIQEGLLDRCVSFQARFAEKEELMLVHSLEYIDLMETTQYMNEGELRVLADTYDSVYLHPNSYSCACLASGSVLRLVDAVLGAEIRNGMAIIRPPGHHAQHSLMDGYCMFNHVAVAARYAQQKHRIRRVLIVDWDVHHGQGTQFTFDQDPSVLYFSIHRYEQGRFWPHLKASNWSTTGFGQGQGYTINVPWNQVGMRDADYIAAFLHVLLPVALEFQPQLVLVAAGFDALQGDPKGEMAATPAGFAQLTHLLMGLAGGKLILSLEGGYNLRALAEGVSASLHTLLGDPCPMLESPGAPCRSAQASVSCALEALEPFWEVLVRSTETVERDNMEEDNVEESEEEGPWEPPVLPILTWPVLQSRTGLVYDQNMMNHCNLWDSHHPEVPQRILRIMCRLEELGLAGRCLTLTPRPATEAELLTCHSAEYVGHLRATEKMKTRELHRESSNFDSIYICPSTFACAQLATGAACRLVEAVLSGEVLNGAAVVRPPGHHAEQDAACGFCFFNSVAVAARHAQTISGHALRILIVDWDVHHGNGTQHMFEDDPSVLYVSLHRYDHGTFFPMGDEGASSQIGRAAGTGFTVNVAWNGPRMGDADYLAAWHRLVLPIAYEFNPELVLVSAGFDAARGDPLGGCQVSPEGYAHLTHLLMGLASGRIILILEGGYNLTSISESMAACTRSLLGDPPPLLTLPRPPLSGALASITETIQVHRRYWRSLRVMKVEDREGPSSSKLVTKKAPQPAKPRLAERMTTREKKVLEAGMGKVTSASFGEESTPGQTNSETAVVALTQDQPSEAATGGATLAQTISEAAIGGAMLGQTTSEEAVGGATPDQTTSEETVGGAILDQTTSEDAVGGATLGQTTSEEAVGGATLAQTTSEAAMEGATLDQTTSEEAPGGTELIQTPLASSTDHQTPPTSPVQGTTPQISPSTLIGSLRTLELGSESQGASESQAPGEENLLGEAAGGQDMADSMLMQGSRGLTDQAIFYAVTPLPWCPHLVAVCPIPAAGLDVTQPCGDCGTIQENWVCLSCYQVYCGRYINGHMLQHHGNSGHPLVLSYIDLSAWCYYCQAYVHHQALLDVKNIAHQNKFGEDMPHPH
Outline: as §1

Row | SMILES | inhibition at 1 µM (HDAC9 enzyme) | inhibition at 1 µM (HDAC1 enzyme) | inhibition at 1 µM (HDAC6 enzyme) | HDAC1 inhibitory rate (%) (1 μM) (HDAC1 enzyme) | HDAC9 inhibitory rate (%) (1 μM) (HDAC9 enzyme; 1 µM) | HDAC6 inhibitory rate (%) (1 μM) (HDAC6 enzyme)
1 | N[C@@H]1CCC[C@H]1N1Cc2ccc(-c3noc(C(F)(F)F)n3)cc2C1=O [Example 142, 2-((1R,2R)-2-aminocyclopentyl)-6-(5-(trifluoromethyl)-1,2,4-oxadiazol-3-yl)isoindolin-1-one] | 54% | -6% | -3% |  |  | 
2 | N[C@H]1CCC[C@@H]1N1Cc2ccc(-c3noc(C(F)(F)F)n3)cc2C1=O [Example 143, 2-((1S,2S)-2-aminocyclopentyl)-6-(5-(trifluoromethyl)-1,2,4-oxadiazol-3-yl)isoindolin-1-one] | 52% | -1% | -4% |  |  | 
3 | O=C(N[C@@H]1CCCC[C@H]1N1Cc2ccc(-c3noc(C(F)(F)F)n3)cc2C1=O)N1C2COCC1C2 [Example 144, N-((1R,2R)-2-(1-oxo-6-(5-(trifluoromethyl)-1,2,4-oxadiazol-3-yl)-1,3-dihydro-2H-isoindol-2-yl)cyclohexyl)-3-oxa-6-azabicyclo[3.1.1]heptane-6-carboxamide] | 31% | 3% | 100% |  |  | 
4 | O=C(N[C@@H]1CCCC[C@H]1N1Cc2ccc(-c3noc(C(F)(F)F)n3)cc2C1=O)N1C2CCC1COC2 [Example 145, N-((1R,2R)-2-(1-oxo-6-(5-(trifluoromethyl)-1,2,4-oxadiazol-3-yl)-1,3-dihydro-2H-isoindol-2-yl)cyclohexyl)-3-oxa-8-azabicyclo[3.2.1]octane-8-carboxamide] | 35% | 0% | 98% |  |  | 
5 | O=C(N[C@@H]1CCCC[C@H]1N1Cc2ccc(-c3noc(C(F)(F)F)n3)cc2C1=O)N1CC2CCC(C1)O2 [Example 146, N-((1R,2R)-2-(1-oxo-6-(5-(trifluoromethyl)-1,2,4-oxadiazol-3-yl)-1,3-dihydro-2H-isoindol-2-yl)cyclohexyl)-8-oxa-3-azabicyclo[3.2.1]octane-3-carboxamide] | 23% | 2% | 99% |  |  | 
6 | O=C(N[C@@H]1CCCC[C@H]1N1Cc2ccc(-c3noc(C(F)(F)F)n3)cc2C1=O)[C@@H]1CC1(F)F [Example 147, (1S)-2,2-difluoro-N-((1R,2R)-2-(1-oxo-6-(5-(trifluoromethyl) -1,2,4-oxadiazol-3-yl)-1,3-dihydro-2H-isoindol-2-yl)cyclohexyl)cyclopropanecarboxamide] | 51% | 6% | 99% |  |  | 
7 | O=C(N[C@@H]1CCCC[C@H]1N1Cc2ccc(-c3noc(C(F)(F)F)n3)cc2C1=O)[C@H]1CC1(F)F [Example 148, (1R)-2,2-difluoro-N-((1R,2R)-2-(1-oxo-6-(5-(trifluoromethyl)-1,2,4-oxadiazol-3-yl)-1,3-dihydro-2H-isoindol-2-yl)cyclohexyl) cyclopropanecarboxamide] | 82% | 8% | 100% |  |  | 
8 | O=C(N[C@@H]1COCC[C@H]1N1Cc2ccc(-c3noc(C(F)(F)F)n3)cc2C1=O)[C@@H]1CC1(F)F [Example 149, (1S)-2,2-difluoro-N-((3S,4R)-4-(1-oxo-6-(5-(trifluoromethyl)-1,2,4-oxadiazol-3-yl)-1,3-dihydro-2H-isoindol-2-yl)tetrahydro-2H-pyran-3-yl)cyclopropanecarboxamide] | 60% | 12% | 100% |  |  | 
9 | O=C(N[C@@H]1COCC[C@H]1N1Cc2ccc(-c3noc(C(F)(F)F)n3)cc2C1=O)[C@H]1CC1(F)F [Example 150, (1R)-2,2-difluoro-N-((3S,4R)-4-(1-oxo-6-(5-(trifluoromethyl)-1,2,4-oxadiazol-3-yl)-1,3-dihydro-2H-isoindol-2-yl)tetrahydro-2H-pyran-3-yl)cyclopropanecarboxamide] | 85% | 13% | 100% |  |  | 
10 | CC1(C(=O)N[C@@H]2CCC[C@H]2N2Cc3ccc(-c4noc(C(F)(F)F)n4)cc3C2=O)COC1 [Example 151, 3-methyl-N-((1R,2R)-2-(1-oxo-6-(5-(trifluoromethyl)-1,2,4-oxadiazol-3-yl)-1,3-dihydro-2H-isoindol-2-yl)cyclopentyl)oxetane-3-carboxamide] | 42% | 16% | 35% |  |  | 
11 | CC1(C(=O)N[C@H]2CCC[C@@H]2N2Cc3ccc(-c4noc(C(F)(F)F)n4)cc3C2=O)COC1 [Example 152, 3-methyl-N-((1S,2S)-2-(1-oxo-6-(5-(trifluoromethyl)-1,2,4-oxadiazol-3-yl)-1,3-dihydro-2H-isoindol-2-yl)cyclopentyl)oxetane-3-carboxamide] | 38% | 13% | 31% |  |  | 
12 | O=C1c2cc(-c3noc(C(F)(F)F)n3)ccc2CN1[C@@H]1CCCC[C@H]1NC(=O)C1(CO)CC1 [Example 153, 1-(hydroxymethyl)-N-((1R,2R)-2-(1-oxo-6-(5-(trifluoromethyl)-1,2,4-oxadiazol-3-yl)-1,3-dihydro-2H-isoindol-2-yl)cyclohexyl) cyclopropanecarboxamide] | 52% | 6% | 100% |  |  | 
13 | O=C(NC1CC1)N[C@@H]1CCCC[C@H]1N1Cc2ccc(-c3noc(C(F)(F)F)n3)cc2C1=O [Example 154, 1-cyclopropyl-3-((1R,2R)-2-(1-oxo-6-(5-(trifluoromethyl)-1,2,4-oxadiazol-3-yl)-1,3-dihydro-2H-isoindol-2-yl)cyclohexyl)urea] | 54% | 11% | 100% |  |  | 
14 | CN(C(=O)N[C@@H]1CCCC[C@H]1N1Cc2ccc(-c3noc(C(F)(F)F)n3)cc2C1=O)C1CC1 [Example 155, 1-cyclopropyl-1-methyl-3-((1R,2R)-2-(1-oxo-6-(5-(trifluoromethyl)-1,2,4-oxadiazol-3-yl)-1,3-dihydro-2H-isoindol-2-yl)cyclohexyl)urea] | 54% | 14% | 100% |  |  | 
15 | O=C(N[C@@H]1CCCC[C@H]1N1Cc2ccc(-c3noc(C(F)(F)F)n3)cc2C1=O)N1CC2CC1CO2 (stereo partly drawn) [Example 156, N-((1R,2R)-2-(1-oxo-6-(5-(trifluoromethyl)-1,2,4-oxadiazol-3-yl)-1,3-dihydro-2H-isoindol-2-yl)cyclohexyl)-2-oxa-5-azabicyclo[2.2.1]heptane-5-carboxamide] | 8% |  | 96% | −1% |  | 
16 | O=C(N[C@@H]1CCCC[C@H]1N1Cc2ccc(-c3noc(C(F)(F)F)n3)cc2C1=O)N1CC2CC1CO2 (stereo partly drawn) [Example 157, N-((1R,2R)-2-(1-oxo-6-(5-(trifluoromethyl)-1,2,4-oxadiazol-3-yl)-1,3-dihydro-2H-isoindol-2-yl)cyclohexyl)-2-oxa-5-azabicyclo[2.2.1]heptane-5-carboxamide] |  |  |  | −2% | 15% | 96%
17 | O=C(N[C@@H]1CCCC[C@H]1N1Cc2ccc(-c3noc(C(F)(F)F)n3)cc2C1=O)N1CCCC1 [Example 158, N-((1R,2R)-2-(1-oxo-6-(5-(trifluoromethyl)-1,2,4-oxadiazol-3-yl)-1,3-dihydro-2H-isoindol-2-yl)cyclohexyl)pyrrolidine-1-carboxamide] | 34% | 4% | 99% |  |  | 
